One assay has as its target T1, BACE-1 enzyme (Homo sapiens, UniProt P56817).
T1 construct: purchased R & D Systems 931AS
As to the kind of experiment: BACE Fluorescence Resonance Energy Transfer (FRET) Assay. Format: biochemical. As to conditions: pH 4-4.5, 30 min pre-incubation, about 1.5 hours reaction. An outline of the steps: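 BACE-1 enzyme pre-incubated 30 min with compound in 7.5% DMSO in 50 mM sodium acetate pH 4-4.5, 0.01% CHAPS, 0.0125% Triton X-100, 0.006% EDTA. Rhodamine/quencher peptide substrate added; ~1.5 h at room temperature, fluorescence read at 540/585 nm. IC50 or percent inhibition at one concentration.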

For assay [1], the system named is Aβ1-40 secreted from HEK293 cells stably expressing wildtype human APP695 protein (HEK-APPwt cells). Kind of assay: Aβ Cell Based Assay (Aβ1-40 secretion, ELISA). As to conditions: 6 hours incubation, reduction of Aβ1-40 secretion. On the procedure:
Aβ Cell Based Assay Procedure
In the following assay, the proteolytic activity of BACE in cells exposed to varying concentrations of a compound of interest is measured by observing the amount of Aβ1-40 secreted from HEK293 cells (Human Embryonic Kidney epithelial cell line) stably expressing wildtype human APP695 protein (HEK-APPwt cells).
HEK-APPwt cells were grown in high glucose DMEM (Dulbecco's Modified Eagles Medium SIGMA Cat.# D5796) supplemented with 25 mM HEPES (4-(2-hydroxyethyl)-1-piperazineethanesulfonic acid) (pH 7.4) (Invitrogen Cat.# 15630-114), 0.1 mM NEAA (Non-essential Amino Acids) (BioWhittaker Cat. #13-114E), 10% fetal bovine serum (SIGMA Cat. #F4135) and 250 μg/mL hygromycin (Invitrogen Cat. #10687-010) in T-225 flasks at 37° C. with 5% CO2 and humidity control.
Test compounds were initially prepared in DMSO and diluted with DMEM media containing 2% FBS (Fetal bovine serum). Ten standard compound solutions were prepared having a range of concentrations. The standard compound solutions were used to determine the EC50 of the test compound. The range of concentrations chosen may depend on the compound's predicted potency.
To prepare the cells for the assay, a flask containing HEK-APPwt cells were trypsinized briefly (1 mL trypsin), and once the cells detached, 4 mL of 10% FBS-DMEM was added to the flask. The detached cells were centrifuged at 900 rpm for 5 min to form a pellet.
The HEK-APPwt cell pellet was re-suspended with 10 mL DMEM media containing 2% FBS. 80 μL of the cell suspension was added to each well of a 96-well cell culture plate to give 100×10^4cells/ml. 10 μL of a standard compound solution was added to each well of the 96-well cell culture plate followed by 10 μL of Alamar blue solution. The cells were incubated at 37° C. in a 5% CO2 incubator for 6 hours.
At the end of the incubation, the plates were removed from incubator, and the supernatant was collected. A≈1-40 concentration in the medium was measured by using a commercial Aβ1-X ELISA kit (IBL, Japan Cat. #27729). Briefly, the ELISA plates were coated with an anti-human AO (N)(82E1) mouse IgG monoclonal antibody. A horseradish peroxidase conjugated anti-human Aβ11-28 mouse IgG monoclonal antibody was used for detection. The cell culture supernatant was diluted with EIA buffer +protease inhibitors (kit buffer containing protease inhibitors (1 mL PI/30 mL buffer)). A 100 μL aliquot of the diluted supernatant was added to each well of the ELISA plate and incubated for 6 hrs at 4° C. The ELISA plate was washed 8 times with phosphate buffered saline (PBS) containing 0.05% Tween 20.
A 100 μL of detection antibody was then added and incubated for 1 hour at 4° C. The plate was washed 8 times with PBS buffer containing 0.05% Tween 20 followed by addition of 100 μL of the chromogen tetramethylbenzidine (TMB). The plate was incubated in the dark at room temperature for about 30 min and a stop solution (1N H2SO4) was added.
The intensity of the color developed was measured at 450 nm. The optical density at 450 nm (OD450) is proportional to the concentration of human Aβ1-40 secreted by the cell. As a reference, N-[N-(3,5-difluorophenacetyl-L-alanyl)]-S-phenylglycine t-butyl ester (DAPT, a γ-secretase inhibitor) was used to indicate 100% inhibition of BACE activity. Thus, the assay measures the ability of a compound of interest to reduce Aβ1-40 secretion. For select compounds, compound potency is reported in Table 3 as the EC50 by calculating the percent inhibition at all concentration levels and the data were fit with non-linear curve fitting algorithm using GraphPad Prism.
On the technique in general: An ELISA detects its analyte on a solid surface through an enzyme-linked reagent.

Structures are written as SMILES.

T1 sequence (P56817 46-457 limits assumed): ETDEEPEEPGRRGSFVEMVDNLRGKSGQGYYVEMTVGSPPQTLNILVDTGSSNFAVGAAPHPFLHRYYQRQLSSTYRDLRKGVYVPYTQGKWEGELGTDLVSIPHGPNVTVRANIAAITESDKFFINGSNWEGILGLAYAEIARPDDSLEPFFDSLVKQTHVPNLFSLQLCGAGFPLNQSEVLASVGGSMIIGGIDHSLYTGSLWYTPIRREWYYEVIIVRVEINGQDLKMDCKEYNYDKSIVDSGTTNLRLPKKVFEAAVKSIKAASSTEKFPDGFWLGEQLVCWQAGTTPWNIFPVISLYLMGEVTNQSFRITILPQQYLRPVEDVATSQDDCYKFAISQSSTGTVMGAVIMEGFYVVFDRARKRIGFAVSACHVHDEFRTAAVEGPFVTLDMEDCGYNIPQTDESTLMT

At BACE-1 enzyme, `Cc1cccc2nc(C(=O)Nc3nc4cc(-c5ccc(Cl)cc5)ccc4[nH]3)cn12` [Example 68, 5-Methyl-imidazo[1,2-a]pyridine-2-carboxylic acid [5-(4-chloro-phenyl)-1H-benzoimidazol-2-yl]-amide] had an IC50 of 0.48 µM. In addition, the EC50 in assay [1] (Homo sapiens, HEK293, 6 h) is 1.61 µM.

Turning to `Cc1cccn2cc(C(=O)Nc3nc4cc(-c5ccc(Cl)cc5)ccc4[nH]3)nc12` [Example 69, 8-Methyl-imidazo[1,2-a]pyridine-2-carboxylic acid [5-(4-chloro-phenyl)-1H-benzoimidazol-2-yl]-amide], the IC50 on BACE-1 enzyme is 0.46 µM. The compound also showed an EC50 in assay [1] (Homo sapiens, HEK293, 6 h) of 6.97 µM.

Consider `Cc1cccc2nc(C(=O)Nc3nc4cc(-c5cc(C(F)(F)F)ccc5F)ccc4[nH]3)cn12` [Example 70, 5-Methyl-imidazo[1,2-a]pyridine-2-carboxylic acid [5-(2-fluoro-5-trifluoromethyl-phenyl)-1H-benzoimidazol-2-yl]-amide], for which the IC50 at BACE-1 enzyme was 0.26 µM. In assay [1] (Homo sapiens, HEK293, 6 h), the half-maximal effective concentration (EC50) came to 0.21 µM.

At BACE-1 enzyme, `Cc1cccn2cc(C(=O)Nc3nc4cc(-c5cc(C(F)(F)F)ccc5F)ccc4[nH]3)nc12` [Example 71, 8-Methyl-imidazo[1,2-a]pyridine-2-carboxylic acid [5-(2-fluoro-5-trifluoromethyl-phenyl)-1H-benzoimidazol-2-yl]-amide] came in with a half-maximal inhibitory concentration (IC50) of 0.36 µM. The compound also registered an EC50 in assay [1] (Homo sapiens, HEK293, 6 h) of 1.56 µM.

At BACE-1 enzyme, `CCOC(=O)c1cccc(-c2ccc3[nH]c(NC(=O)c4cn5c(C)cccc5n4)nc3c2)c1` [Example 72, 3-{2-[(5-Methyl-imidazo[1,2-a]pyridine-2-carbonyl)-amino]-1H-benzoimidazol-5-yl}-benzoic acid ethyl ester] came in with an IC50 of 0.62 µM. The compound further had a half-maximal effective concentration (EC50) in assay [1] (Homo sapiens, HEK293, 6 h) of 1.51 µM.

Regarding `COc1ccc(-c2ccc3[nH]c(NC(=O)c4cn5c(C)cccc5n4)nc3c2)cc1C(F)(F)F` [Example 76, 5-Methyl-imidazo[1,2-a]pyridine-2-carboxylic acid [5-(4-methoxy-3-trifluoromethyl-phenyl)-1H-benzoimidazol-2-yl]-amide], the concentration for half-maximal inhibition (IC50) against BACE-1 enzyme was determined as 0.38 µM. The same compound came in with an EC50 in assay [1] (Homo sapiens, HEK293, 6 h) of 0.89 µM.

Compound `Cc1cccc2nc(C(=O)Nc3nc4cc(-c5ccc(C(C)(C)C)cc5)ccc4[nH]3)cn12` [Example 77, 5-Methyl-imidazo[1,2-a]pyridine-2-carboxylic acid [5-(4-tert-butyl-phenyl)-1H-benzoimidazol-2-yl]-amide] came in with a half-inhibitory concentration (IC50) against BACE-1 enzyme of 0.61 µM. Besides, a half-maximal effect in assay [1] (Homo sapiens, HEK293, 6 h) (EC50) was put at 0.85 µM.

In turn, `Cc1cccn2cc(C(=O)Nc3nc4cc(-c5ccc(C(C)(C)C)cc5)ccc4[nH]3)nc12` [Example 78, 8-Methyl-imidazo[1,2-a]pyridine-2-carboxylic acid [5-(4-tert-butyl-phenyl)-1H-benzoimidazol-2-yl]-amide] registered a half-maximal inhibitory concentration (IC50) at BACE-1 enzyme of 0.37 µM. In assay [1] (Homo sapiens, HEK293, 6 h), a half-maximal response (EC50) required 0.98 µM.

In the case of `CCOc1ccc(-c2ccc3[nH]c(NC(=O)c4cn5c(C)cccc5n4)nc3c2)cc1Cl` [Example 79, 5-Methyl-imidazo[1,2-a]pyridine-2-carboxylic acid [5-(3-chloro-4-ethoxy-phenyl)-1H-benzoimidazol-2-yl]-amide], inhibition against BACE-1 enzyme was half-maximal at 1.82 µM (IC50). In assay [1], this compound registered a concentration giving a half-maximal response (EC50) of 1.54 µM.

Compound `CCOc1ccc(-c2ccc3[nH]c(NC(=O)c4cn5c(C)cccc5n4)nc3c2)cc1F` [Example 80, 5-Methyl-imidazo[1,2-a]pyridine-2-carboxylic acid [5-(4-ethoxy-3-fluoro-phenyl)-1H-benzoimidazol-2-yl]-amide] yielded an IC50 against BACE-1 enzyme of 0.81 µM. The response in assay [1] (Homo sapiens, HEK293, 6 h) was half-maximal at 1.32 µM (EC50).

Regarding `Cc1cccc2nc(C(=O)Nc3nc4cc(-c5cccc(C#N)c5)ccc4[nH]3)cn12` [Example 82, 5-Methyl-imidazo[1,2-a]pyridine-2-carboxylic acid [5-(3-cyano-phenyl)-1H-benzoimidazol-2-yl]-amide], the half-maximal inhibitory concentration (IC50) on BACE-1 enzyme was determined as 2.21 µM. For the same compound, the half-maximal effective concentration (EC50) in assay [1] (Homo sapiens, HEK293, 6 h) turned out to be 1.1 µM.

On BACE-1 enzyme, `Cc1cccc2nc(C(=O)Nc3nc4cc(C5=CCCCC5)ccc4[nH]3)cn12` [Example 83, 5-Methyl-imidazo[1,2-a]pyridine-2-carboxylic acid (5-cyclohex-1-enyl-1H-benzoimidazol-2-yl)-amide] yielded a half-inhibitory concentration (IC50) of 1.45 µM. For the same compound, in assay [1] (Homo sapiens, HEK293, 6 h), it took 4.17 µM to reach a half-maximal effect (EC50).

With `Cc1cccn2cc(C(=O)Nc3nc4cc(-c5cccc(C#N)c5)ccc4[nH]3)nc12` [Example 84, 8-Methyl-imidazo[1,2-a]pyridine-2-carboxylic acid [5-(3-cyano-phenyl)-1H-benzoimidazol-2-yl]-amide], 1.21 µM corresponded to half-maximal inhibition at BACE-1 enzyme (IC50). This compound also registered an EC50 in assay [1] (Homo sapiens, HEK293, 6 h) of 2.9 µM.

Take `Cc1cccc2nc(C(=O)Nc3nc4cc(-c5cc(Cl)ccc5Cl)ccc4[nH]3)cn12` [Example 87, 5-Methyl-imidazo[1,2-a]pyridine-2-carboxylic acid [5-(2,5-dichloro-phenyl)-1H-benzoimidazol-2-yl]-amide]: the IC50 against BACE-1 enzyme amounted to 0.22 µM. For the same compound, a half-maximal effect in assay [1] (Homo sapiens, HEK293, 6 h) (EC50) was put at 0.73 µM.

As to `Cc1cccc2nc(C(=O)Nc3nc4cc(-c5ccc(C(F)(F)F)c(Cl)c5)ccc4[nH]3)cn12` [Example 92, 5-Methyl-imidazo[1,2-a]pyridine-2-carboxylic acid [5-(3-chloro-4-trifluoromethyl-phenyl)-1H-benzoimidazol-2-yl]-amide], half-maximal inhibition against BACE-1 enzyme (IC50) required 0.6 µM. In assay [1] (Homo sapiens, HEK293, 6 h), the concentration giving a half-maximal response (EC50) turned out to be 0.22 µM.

For the compound `Cc1cccc2nc(C(=O)Nc3nc4cc(-c5ccc(OC(C)C)cc5)ccc4[nH]3)cn12` [Example 97, 5-Methyl-imidazo[1,2-a]pyridine-2-carboxylic acid [5-(4-isopropoxy-phenyl)-1H-benzoimidazol-2-yl]-amide], on BACE-1 enzyme, the half-inhibitory concentration (IC50) is 0.58 µM. The concentration for a half-maximal effect (EC50) in assay [1] (Homo sapiens, HEK293, 6 h) is 1.78 µM.

Regarding `Cc1cc(-c2ccc3[nH]c(NC(=O)c4cn5c(C)cccc5n4)nc3c2)ccc1Cl` [Example 99, 5-Methyl-imidazo[1,2-a]pyridine-2-carboxylic acid [5-(4-chloro-3-methyl-phenyl)-1H-benzoimidazol-2-yl]-amide], inhibition on BACE-1 enzyme was half-maximal at 0.27 µM (IC50). Besides, in assay [1] (Homo sapiens, HEK293, 6 h), the concentration for a half-maximal effect (EC50) is 0.12 µM.

Turning to `Cc1cccc2nc(C(=O)Nc3nc4cc(-c5ccc(O)c(C(F)(F)F)c5)ccc4[nH]3)cn12` [Example 100, 5-Methyl-imidazo[1,2-a]pyridine-2-carboxylic acid [5-(4-hydroxy-3-trifluoromethyl-phenyl)-1H-benzoimidazol-2-yl]-amide], on BACE-1 enzyme, half-maximal inhibition (IC50) was put at 0.46 µM. This compound had an EC50 in assay [1] (Homo sapiens, HEK293, 6 h) of 2.44 µM.

The compound `Cc1cccc2nc(C(=O)Nc3nc4cc(-c5ccsc5)ccc4[nH]3)cn12` [Example 102, 5-Methyl-imidazo[1,2-a]pyridine-2-carboxylic acid (5-thiophen-3-yl-1H-benzoimidazol-2-yl)-amide] registered an IC50 at BACE-1 enzyme of 0.45 µM. This compound also showed an EC50 in assay [1] (Homo sapiens, HEK293, 6 h) of 2.46 µM.

Consider `CCOc1ccc(-c2ccc3[nH]c(NC(=O)c4cn5c(C)cccc5n4)nc3c2)cc1Cl` [Example 106, 5-Methyl-imidazo[1,2-a]pyridine-2-carboxylic acid [5-(3-chloro-4-ethoxy-phenyl)-1H-benzoimidazol-2-yl]-amide], for which the half-maximal inhibitory concentration (IC50) against BACE-1 enzyme is 0.8 µM. Moreover, in assay [1] (Homo sapiens, HEK293, 6 h), the EC50 was 0.93 µM.

At BACE-1 enzyme, `CCOc1ccc(-c2ccc3[nH]c(NC(=O)c4cn5c(C)cccc5n4)nc3c2)cc1C` [Example 107, 5-Methyl-imidazo[1,2-a]pyridine-2-carboxylic acid [5-(4-ethoxy-3-methyl-phenyl)-1H-benzoimidazol-2-yl]-amide] returned an IC50 of 0.84 µM. For the same compound, in assay [1] (Homo sapiens, HEK293, 6 h), the EC50 was 2.95 µM.

Broadly, the IC50 is the midpoint of a concentration-inhibition curve. The term EC50 denotes the midpoint of the concentration-response curve. Read a high EC50 as lower potency in that assay.

(Values after US20120101093A1, “SUBSTITUTED IMIDAZO[1,2-A]PYRIDINE DERIVATIVES, PHARMACEUTICAL COMPOSITIONS, AND METHODS OF USE AS BETA-SECRETASE INHIBITORS” (HIGH POINT PHARMACEUTICALS, LLC, priority 2009, published 2012).)
